Test results from ChEMBL document CHEMBL1151861, “Synthesis of novel nitric oxide (NO)-releasing esters of timolol” (Bioorg Med Chem Lett, 2009).

What was measured:
[1] = Chemical stability in pH 5.7 buffer at room temperature after 1 day; type: physicochemical; conditions: for remaining at 24 h: pH 5.7 buffer, pH 5.7, read-out: Stability
[2] = Chemical stability in pH 5.7 buffer at room temperature after 1 week; type: physicochemical; conditions: read-out: Stability
[3] = Stability in rabbit corneal homogenate at 37 degC assessed as half life of timolol release; type: ADME, tissue-based, Oryctolagus cuniculus, Cornea; conditions: in vitro
[4] = Chemical stability in pH 5.7 buffer at room temperature after 4 weeks; type: physicochemical; conditions: read-out: Stability
[5] = Chemical stability in pH 5.7 buffer at room temperature after 8 weeks; type: physicochemical; conditions: read-out: Stability
[6] = Chemical stability in pH 5.7 buffer at room temperature after 12 weeks; type: physicochemical; conditions: read-out: Stability
[7] = Vasodilation activity in rabbit aortic rings assessed as relaxation of 3 uM methoxamine-induced contraction in absence of guanylate cyclase inhibitor 1H-[1,2,4]oxadiazolo[4,3-a]quinoxalin-1-one; type: functional, tissue-based; conditions: Oryctolagus cuniculus, Aorta
[8] = Vasodilation activity in rabbit aortic rings assessed as relaxation of 3 uM methoxamine-induced contraction in presence of 10 uM guanylate cyclase inhibitor 1H-[1,2,4]oxadiazolo[4,3-a]quinoxalin-1-one; type: functional, tissue-based; conditions: Oryctolagus cuniculus, Aorta

Question: For `COc1cccc(C(=O)O[C@@H](CNC(C)(C)C)COc2nsnc2N2CCOCC2)c1OCCO[N+](=O)[O-].O=C(O)/C=C\C(=O)O`, which remaining at 24 h [1] is on record?
Answer: 96%

Question: And the remaining at 168 h [2]?
Answer: 72.1%

Question: And the t1/2 [3]?
Answer: > 23.33 h

Question: For `COc1cc(COC(=O)C(C)(C)CO[N+](=O)[O-])c(C(=O)O[C@@H](CNC(C)(C)C)COc2nsnc2N2CCOCC2)c(OC)c1.O=C(O)/C=C\C(=O)O`, which remaining at 24 h [1] is on record?
Answer: 98.4%

Question: What about the remaining at 168 h [2] of the same molecule?
Answer: 99.1%

Question: What about the remaining at 672 h [4] of the same molecule?
Answer: 94.7%

Question: And the remaining at 1344 h [5]?
Answer: 94.9%

Question: What about the remaining at 2016 h [6] of the same molecule?
Answer: 93.2%

Question: What about the t1/2 [3] of the same molecule?
Answer: 2 h

Question: With `COc1cc(COCCO[N+](=O)[O-])ccc1C(=O)O[C@@H](CNC(C)(C)C)COc1nsnc1N1CCOCC1` as the molecule, how does the remaining at 24 h [1] read?
Answer: 96.7%

Question: And the remaining at 168 h [2]?
Answer: 94.9%

Question: Which EC50 [7] does the source give for `CC(C)(C)NC[C@H](O)COc1nsnc1N1CCOCC1` [TIMOLOL] here?
Answer: 28.8 µM

Question: What about the EC50 [8] of the same molecule?
Answer: 36.5 µM

Question: For `COc1cc(COC(=O)CCCO[N+](=O)[O-])c(C(=O)O[C@@H](CNC(C)(C)C)COc2nsnc2N2CCOCC2)c(OC)c1.O=C(O)/C=C\C(=O)O`, which remaining at 24 h [1] is on record?
Answer: 96.5%

Question: What about the remaining at 168 h [2] of the same molecule?
Answer: 96.5%

Question: And the remaining at 672 h [4]?
Answer: 90.6%

Question: And the t1/2 [3]?
Answer: 0.2 h

Question: With `CC(C)(C)NC[C@@H](COc1nsnc1N1CCOCC1)OC(=O)c1ccccc1` as the molecule, how does the remaining at 24 h [1] read?
Answer: 96%

Question: And the remaining at 168 h [2]?
Answer: 74.8%

Question: Which remaining at 24 h [1] does the source give for `COc1cccc(OCCO[N+](=O)[O-])c1C(=O)O[C@@H](CNC(C)(C)C)COc1nsnc1N1CCOCC1.O=C(O)/C=C\C(=O)O` here?
Answer: 99.8%

Question: And the remaining at 168 h [2]?
Answer: 99.3%

Question: What about the remaining at 672 h [4] of the same molecule?
Answer: 98.3%

Question: And the remaining at 1344 h [5]?
Answer: 98.3%

Question: What about the remaining at 2016 h [6] of the same molecule?
Answer: 98.3%

Question: What about the t1/2 [3] of the same molecule?
Answer: > 23.33 h

Question: For `CC(C)(C)NC[C@@H](COc1nsnc1N1CCOCC1)OC(=O)c1ccccc1OCCO[N+](=O)[O-].O=C(O)/C=C\C(=O)O`, which remaining at 24 h [1] is on record?
Answer: 96.5%

Question: And the remaining at 168 h [2]?
Answer: 82.5%

Question: What about the t1/2 [3] of the same molecule?
Answer: 4.3 h

Question: Which remaining at 24 h [1] does the source give for `COc1cc(COC(=O)CCOCC(CO[N+](=O)[O-])O[N+](=O)[O-])c(C(=O)O[C@@H](CNC(C)(C)C)COc2nsnc2N2CCOCC2)c(OC)c1.O=C(O)/C=C\C(=O)O` (some centres not stated) here?
Answer: 97.3%

Question: What about the remaining at 168 h [2] of the same molecule?
Answer: 96.7%

Question: And the remaining at 672 h [4]?
Answer: 95.8%

Question: What about the remaining at 1344 h [5] of the same molecule?
Answer: 91.7%

Question: What about the remaining at 2016 h [6] of the same molecule?
Answer: 86%

Question: What about the t1/2 [3] of the same molecule?
Answer: 0.667 h

Question: What does the source list for `COc1cc(COC(=O)CCCCCO[N+](=O)[O-])c(C(=O)O[C@@H](CNC(C)(C)C)COc2nsnc2N2CCOCC2)c(OC)c1.O=C(O)/C=C\C(=O)O`?
Answer: remaining at 24 h [1]: 99.6%; remaining at 168 h [2]: 99.6%; remaining at 672 h [4]: 97.7%; remaining at 1344 h [5]: 92.8%; t1/2 [3]: 0.167 h; EC50 [7]: 6.7 µM; EC50 [8]: 56.3 µM

Question: For `CC(C)(C)NC[C@@H](COc1nsnc1N1CCOCC1)OC(=O)c1ccc(OCCO[N+](=O)[O-])cc1OCCO[N+](=O)[O-]`, which remaining at 24 h [1] is on record?
Answer: 97.9%

Question: And the remaining at 168 h [2]?
Answer: 84.2%

Question: Which EC50 [7] does the source give for `O=[N+]([O-])O[C@@H]1CO[C@H]2[C@@H]1OC[C@@H]2O` [ISOSORBIDE MONONITRATE] here?
Answer: 9.6 µM

Question: What about the EC50 [8] of the same molecule?
Answer: > 100 µM

Question: With `COc1cc(OCCO[N+](=O)[O-])ccc1C(=O)O[C@@H](CNC(C)(C)C)COc1nsnc1N1CCOCC1` as the molecule, how does the remaining at 24 h [1] read?
Answer: 98.6%

Question: And the remaining at 168 h [2]?
Answer: 96.3%

Question: And the remaining at 672 h [4]?
Answer: 84.4%

Question: Which results are given for `COc1ccc(CO[N+](=O)[O-])cc1C(=O)O[C@@H](CNC(C)(C)C)COc1nsnc1N1CCOCC1.O=C(O)/C=C\C(=O)O`?
Answer: Stability ([1]; buffer, pH 5.7, 24 h): Unstable; t1/2 [3]: 4.62 h

Question: For `COc1cc(COC(=O)CCCCCO[N+](=O)[O-])cc(OC)c1C(=O)O[C@@H](CNC(C)(C)C)COc1nsnc1N1CCOCC1.O=C(O)/C=C\C(=O)O`, which remaining at 24 h [1] is on record?
Answer: 100%

Question: What about the remaining at 168 h [2] of the same molecule?
Answer: 100%

Question: What about the remaining at 672 h [4] of the same molecule?
Answer: 98%

Question: And the remaining at 1344 h [5]?
Answer: 96.8%

Question: What about the remaining at 2016 h [6] of the same molecule?
Answer: 93.2%

Question: What about the t1/2 [3] of the same molecule?
Answer: > 23.33 h

Question: With `COc1cc(OCCO[N+](=O)[O-])cc(C)c1C(=O)O[C@@H](CNC(C)(C)C)COc1nsnc1N1CCOCC1.O=C(O)/C=C\C(=O)O` as the molecule, how does the remaining at 24 h [1] read?
Answer: 101%

Question: What about the remaining at 168 h [2] of the same molecule?
Answer: 101%

Question: And the remaining at 672 h [4]?
Answer: 100%

Question: And the remaining at 1344 h [5]?
Answer: 99.6%

Question: What about the remaining at 2016 h [6] of the same molecule?
Answer: 98.5%

Question: What about the t1/2 [3] of the same molecule?
Answer: > 23.33 h

Question: For `COc1cc(COC(=O)COCCOCCO[N+](=O)[O-])c(C(=O)O[C@@H](CNC(C)(C)C)COc2nsnc2N2CCOCC2)c(OC)c1.O=C(O)/C=C\C(=O)O`, which remaining at 24 h [1] is on record?
Answer: 98.8%

Question: And the remaining at 168 h [2]?
Answer: 93%

Question: What about the t1/2 [3] of the same molecule?
Answer: 0.167 h

Question: What about the EC50 [7] of the same molecule?
Answer: 15.5 µM

Question: What about the EC50 [8] of the same molecule?
Answer: 32.7 µM
